Test results published in the NIST ThermoML archive (doi:10.1016/j.tca.2018.04.007).
Numbers after ± are expanded uncertainties.

What was measured:
[1] = refractive index (Na D-line) (dimensionless); settings: 101.33 kPa, Liquid, Standard Abbe refractometry
[2] = 101.33 kPa, Liquid; for viscosity: Capillary tube (Ostwald / Ubbelohde) method; for mass density: Vibrating tube method; for thermal conductivity: transient hot wire; for electrical conductivity: Direct current cell with electrodes

SMILES	refractive index ([1]; 283.15 K)	refractive index ([1]; 293.15 K)	refractive index ([1]; 303.15 K)	refractive index ([1]; 313.15 K)	refractive index ([1]; 323.15 K)	refractive index ([1]; 333.15 K)	refractive index ([1]; 343.15 K)	mass density ([2]; 283.15 K)	viscosity ([2]; 293.15 K)	electrical conductivity ([2]; 293.15 K)	mass density ([2]; 293.15 K)	thermal conductivity ([2]; 293.15 K)	viscosity ([2]; 303.15 K)	electrical conductivity ([2]; 303.15 K)	mass density ([2]; 303.15 K)	thermal conductivity ([2]; 303.15 K)	viscosity ([2]; 313.15 K)	thermal conductivity ([2]; 313.15 K)	thermal conductivity ([2]; 323.15 K)	thermal conductivity ([2]; 333.15 K)	further results
CCCC[P+](C)(CCCC)CCCC.O=S(=O)([N-]S(=O)(=O)C(F)(F)F)C(F)(F)F	1.4403 ± 0.0005	1.4374 ± 0.0005	1.4344 ± 0.0005	1.4314 ± 0.0005	1.4285 ± 0.0005	1.4255 ± 0.0005	1.4228 ± 0.0005	1267.21 ± 2 kg/m3	299.3 ± 9.5 mPa·s	0.0367 ± 0.0037 S/m	1258.68 ± 2 kg/m3	0.126 ± 0.002 W/m/K	156 ± 3.4 mPa·s	0.0743 ± 0.0074 S/m	1250.31 ± 2 kg/m3	0.125 ± 0.002 W/m/K	87.7 ± 1.3 mPa·s	0.122 ± 0.002 W/m/K	0.123 ± 0.002 W/m/K	0.122 ± 0.002 W/m/K	viscosity ([2]; 283.15 K): 616.7 ± 26 mPa·s; thermal conductivity ([2]; 283.15 K): 0.126 ± 0.002 W/m/K; electrical conductivity ([2]; 313.15 K): 0.123 ± 0.012 S/m; mass density ([2]; 313.15 K): 1242.07 ± 2 kg/m3; viscosity ([2]; 323.15 K): 54.7 ± 0.7 mPa·s; electrical conductivity ([2]; 323.15 K): 0.187 ± 0.019 S/m; mass density ([2]; 323.15 K): 1233.84 ± 2 kg/m3; viscosity ([2]; 333.15 K): 38.4 ± 0.5 mPa·s; electrical conductivity ([2]; 333.15 K): 0.279 ± 0.028 S/m; mass density ([2]; 333.15 K): 1225.64 ± 2 kg/m3; viscosity ([2]; 343.15 K): 27.5 ± 0.3 mPa·s; electrical conductivity ([2]; 343.15 K): 0.405 ± 0.041 S/m; mass density ([2]; 343.15 K): 1217.49 ± 2 kg/m3; thermal conductivity ([2]; 343.15 K): 0.121 ± 0.002 W/m/K
CCCCn1cc[n+](C)c1.COS(=O)(=O)[O-] [1-butyl-3-methylimidazolium methyl sulfate]	1.4831 ± 0.0005	1.4804 ± 0.0005	1.4781 ± 0.0005	1.4753 ± 0.0005	1.4729 ± 0.0005	1.4704 ± 0.0005	1.4678 ± 0.0005	1218.78 ± 2 kg/m3	269.1 ± 8 mPa·s	0.104 ± 0.01 S/m	1211.96 ± 2 kg/m3	0.177 ± 0.002 W/m/K	151.9 ± 3.3 mPa·s	0.177 ± 0.018 S/m	1205.33 ± 2 kg/m3	0.176 ± 0.002 W/m/K	91.7 ± 1.4 mPa·s	0.176 ± 0.002 W/m/K	0.174 ± 0.002 W/m/K	0.173 ± 0.002 W/m/K	viscosity ([2]; 283.15 K): 531.6 ± 22 mPa·s; thermal conductivity ([2]; 283.15 K): 0.179 ± 0.002 W/m/K; electrical conductivity ([2]; 313.15 K): 0.279 ± 0.028 S/m; mass density ([2]; 313.15 K): 1198.79 ± 2 kg/m3; viscosity ([2]; 323.15 K): 59.6 ± 0.7 mPa·s; electrical conductivity ([2]; 323.15 K): 0.426 ± 0.043 S/m; mass density ([2]; 323.15 K): 1192.26 ± 2 kg/m3; viscosity ([2]; 333.15 K): 40.5 ± 0.5 mPa·s; electrical conductivity ([2]; 333.15 K): 0.623 ± 0.062 S/m; mass density ([2]; 333.15 K): 1185.76 ± 2 kg/m3; viscosity ([2]; 343.15 K): 28.9 ± 0.4 mPa·s; electrical conductivity ([2]; 343.15 K): 0.884 ± 0.088 S/m; mass density ([2]; 343.15 K): 1179.31 ± 2 kg/m3; thermal conductivity ([2]; 343.15 K): 0.172 ± 0.002 W/m/K
COS(=O)(=O)[O-].C[n+]1ccccc1 [1-methylpyridinium methylsulfate]	1.5164 ± 0.0005	1.5139 ± 0.0005	1.5113 ± 0.0005	1.5088 ± 0.0005	1.5063 ± 0.0005	1.5039 ± 0.0005	1.5013 ± 0.0005	1355 ± 2.1 kg/m3	113.5 ± 2 mPa·s	0.287 ± 0.029 S/m	1348.1 ± 2.1 kg/m3	0.205 ± 0.002 W/m/K	69.2 ± 0.9 mPa·s	0.45 ± 0.045 S/m	1341.3 ± 2.1 kg/m3	0.204 ± 0.002 W/m/K	46 ± 0.6 mPa·s	0.204 ± 0.002 W/m/K	0.203 ± 0.002 W/m/K	0.202 ± 0.002 W/m/K	viscosity ([2]; 283.15 K): 199 ± 4.9 mPa·s; thermal conductivity ([2]; 283.15 K): 0.205 ± 0.002 W/m/K; electrical conductivity ([2]; 313.15 K): 0.683 ± 0.068 S/m; mass density ([2]; 313.15 K): 1334.5 ± 2.1 kg/m3; viscosity ([2]; 323.15 K): 32 ± 0.4 mPa·s; electrical conductivity ([2]; 323.15 K): 0.986 ± 0.099 S/m; mass density ([2]; 323.15 K): 1327.8 ± 2.1 kg/m3; viscosity ([2]; 333.15 K): 23 ± 0.3 mPa·s; electrical conductivity ([2]; 333.15 K): 1.36 ± 0.14 S/m; mass density ([2]; 333.15 K): 1321.1 ± 2.1 kg/m3; viscosity ([2]; 343.15 K): 17.3 ± 0.2 mPa·s; electrical conductivity ([2]; 343.15 K): 1.75 ± 0.18 S/m; mass density ([2]; 343.15 K): 1314.5 ± 2.1 kg/m3; thermal conductivity ([2]; 343.15 K): 0.201 ± 0.002 W/m/K
OCC(O)CO [glycerol]												0.284 ± 0.002 W/m/K				0.284 ± 0.002 W/m/K		0.284 ± 0.002 W/m/K	0.284 ± 0.002 W/m/K	0.284 ± 0.002 W/m/K	thermal conductivity ([2]; 283.15 K): 0.284 ± 0.002 W/m/K
CCCC[P+](C)(CCCC)CCCC.[Cl-] [methyltributylphosphonium chloride]	1.5053 ± 0.0005	1.5037 ± 0.0005	1.4999 ± 0.0005	1.4972 ± 0.0005	1.4952 ± 0.0005	1.4923 ± 0.0005	1.4888 ± 0.0005	964.23 ± 2 kg/m3	13511 ± 1300 mPa·s	0.00254 ± 0.00026 S/m	958.67 ± 2 kg/m3	0.159 ± 0.002 W/m/K	4692 ± 360 mPa·s	0.0059 ± 0.00059 S/m	953.44 ± 2 kg/m3	0.158 ± 0.002 W/m/K	1914 ± 120 mPa·s	0.157 ± 0.002 W/m/K	0.156 ± 0.002 W/m/K	0.155 ± 0.002 W/m/K	electrical conductivity ([2]; 313.15 K): 0.0131 ± 0.0013 S/m; mass density ([2]; 313.15 K): 948.08 ± 2 kg/m3; viscosity ([2]; 323.15 K): 859 ± 42 mPa·s; electrical conductivity ([2]; 323.15 K): 0.029 ± 0.0029 S/m; mass density ([2]; 323.15 K): 942.74 ± 2 kg/m3; viscosity ([2]; 333.15 K): 416.8 ± 16 mPa·s; electrical conductivity ([2]; 333.15 K): 0.052 ± 0.0052 S/m; mass density ([2]; 333.15 K): 937.42 ± 2 kg/m3; electrical conductivity ([2]; 343.15 K): 0.0941 ± 0.0094 S/m; mass density ([2]; 343.15 K): 932.12 ± 2 kg/m3; thermal conductivity ([2]; 343.15 K): 0.154 ± 0.002 W/m/K
CCCC[P+](C)(CCCC)CCCC.COS(=O)(=O)[O-] [tributylmethylphosphonium methyl sulfate]	1.4782 ± 0.0005	1.4755 ± 0.0005	1.4728 ± 0.0005	1.4702 ± 0.0005	1.4673 ± 0.0005	1.4647 ± 0.0005	1.4619 ± 0.0005	1066.59 ± 2 kg/m3	1434 ± 82 mPa·s	0.00749 ± 0.00075 S/m	1060.4 ± 2 kg/m3	0.16 ± 0.002 W/m/K	650.6 ± 29 mPa·s	0.0158 ± 0.0016 S/m	1054.25 ± 2 kg/m3	0.159 ± 0.002 W/m/K	339.2 ± 11 mPa·s	0.159 ± 0.002 W/m/K	0.158 ± 0.002 W/m/K	0.157 ± 0.002 W/m/K	electrical conductivity ([2]; 313.15 K): 0.0278 ± 0.0028 S/m; mass density ([2]; 313.15 K): 1048.13 ± 2 kg/m3; viscosity ([2]; 323.15 K): 189.4 ± 4.6 mPa·s; electrical conductivity ([2]; 323.15 K): 0.0483 ± 0.0048 S/m; mass density ([2]; 323.15 K): 1042.02 ± 2 kg/m3; viscosity ([2]; 333.15 K): 113.9 ± 2 mPa·s; electrical conductivity ([2]; 333.15 K): 0.0882 ± 0.0088 S/m; mass density ([2]; 333.15 K): 1036.12 ± 2 kg/m3; viscosity ([2]; 343.15 K): 72.4 ± 1 mPa·s; electrical conductivity ([2]; 343.15 K): 0.139 ± 0.014 S/m; mass density ([2]; 343.15 K): 1030.18 ± 2 kg/m3; thermal conductivity ([2]; 343.15 K): 0.157 ± 0.002 W/m/K
